This is an account of results in patent US20240100049A1, “REACTIVATION OF EMBRYONIC AND FETAL HEMOGLOBIN” (The Henry M. Jackson Foundation for the Advancement of …, priority 2021, published 2024).

One series concerns MEL cells. The series can be described thus: Inhibitor treatment of MEL cells, real-time RT-PCR of globin mRNA. Conditions: for effect on expression levels of Hbb-b1/2 (adult globin): 48 hours treatment. The format is cell-based, Mouse. Here is the method: For studies testing inhibitors on MEL cells, the cells were treated with selected inhibitors or vehicle in culture medium (RPMI 1640 medium with 10% fetal bovine serum) for 48 hours and were subsequently harvested and analyzed for relative mRNA levels of Hbb-bh1 and Hbb-y using real-time RT-PCR.
Primers as used in the Examples as described herein are summarized below.
Background: Quantitative PCR measures a nucleic acid by following its amplification.

In series [1] the test system is human CD34+ HSPCs. Kind of series: Real-time RT-PCR of globin mRNA in erythroid cells differentiated from human CD34+ HSPCs. The format is cell-based. Conditions: 14 days of differentiation; for α-globin mRNA levels: vs DMSO (FIG. 8B). Here is the method: Human CD34^+ HSPCs treated with PTC596 (PTC) or MI-3454 (MI) at indicated concentrations or vehicle (DMSO) were induced to undergo erythroid differentiation. Cells were harvested after 14 days of differentiation for real-time RT-PCR analysis of human fetal γ (FIG. 8A), embryonic […] (FIG. 8B), and adult β (FIG. 8C) globin mRNA levels. Relative expression levels were calculated by normalizing to GAPDH mRNA levels in the same sample and also to cells treated with DMSO.
(§1) Primary human mobilized CD34^+ HSPCs (StemCell Technologies Inc.) were initially cultured in expansion medium containing StemSpan-XF Medium (StemCell Technologies Inc.) with 1× CC 100 cytokine mix (StemCell Technologies Inc.). Cells were maintained in this expansion medium at a density of 0.1-1×10^6 cells/ml for a total of 4 days with media changes every two days. On day 4, cells were induced to undergo erythroid differentiation in three phases as known in the art. Briefly, base medium for differentiation contains Iscove's Modified Dulbecco's Medium plus 2% human peripheral blood plasma (Innovative Research), 3% human AB serum (Sigma), […] human holo-transferrin (Sigma), 3 IU/mL heparin (Sigma), […] human insulin (Sigma), and 1% Penicillin-Streptomycin (Life Technologies Inc.). In the first phase (day 0 to day 6), cells were cultured at a concentration of 10^5 cells/ml in the presence of 10 ng/mL human stem cell factor (Biolegend), 1 ng/mL human IL-3 (Biolegend), and 3 IU/mL human erythropoietin (Janssen). In the second phase (day 7 to day 11), IL-3 was omitted from the first phase culture medium. In the third phase (day 12 to day 16), both stem cell factor and IL-3 were omitted and the concentration of transferrin was adjusted to 1 mg/ml. Cell density also was adjusted to 10^6 cells/ml in the beginning of this phase. Drug treatments were started at day 2 of expansion condition and maintained thereafter. New drugs were added every 1-2 days with medium change.
The effects of PTC596 and MI-3454 on human fetal (γ) and embryonic (ε) globin expression in erythroid cells produced in culture from primary human CD34^+ hematopoietic stem and progenitor cells (HSPCs) were further tested. […] PTC596, MI-3454, or control DMSO were added to the culture from day 2 of the expansion phase and were replenished upon media change every two days.

Another series concerns the target T1, BMI1 (Homo sapiens, UniProt P35226).
T1 construct: Western blotting analysis of protein levels of […], BMI1, MEN1, and control ACTIN in CD34^+ HSPCs; host or cells: primary human mobilized CD34+ HSPCs, erythroid differentiation for 14 days
T1 sequence (P35226 1-326): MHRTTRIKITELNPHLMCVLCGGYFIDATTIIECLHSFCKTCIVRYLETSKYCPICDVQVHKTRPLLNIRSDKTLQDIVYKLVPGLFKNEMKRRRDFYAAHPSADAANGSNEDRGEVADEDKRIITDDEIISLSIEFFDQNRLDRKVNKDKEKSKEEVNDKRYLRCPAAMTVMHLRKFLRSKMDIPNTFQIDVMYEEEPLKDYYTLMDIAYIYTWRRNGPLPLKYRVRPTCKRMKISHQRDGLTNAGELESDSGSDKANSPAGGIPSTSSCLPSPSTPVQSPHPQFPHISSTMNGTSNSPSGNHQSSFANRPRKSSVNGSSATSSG
Kind of series: Western blotting of BMI1 in erythroid-differentiated human CD34+ HSPCs. The note with it: erythroid differentiation 14 days. The format is cell-based. Here is the method: (§2) Western blotting analysis of protein levels of […], BMI1, MEN1, and control ACTIN in CD34^+ HSPCs were treated with PTC596 (PTC) at indicated concentrations (FIG. 9A), MI-3454 (MI) at indicated concentrations (FIG. 9B), or DMSO and induced to undergo erythroid differentiation for 14 days.
as §1, with “In the second phase (day 7 to day 11), IL-3 was omitted from the first phase culture medium. In the third phase (day 12 to day 16), both stem cell factor and IL-3 were omitted and the concentration of transferrin was adjusted to 1 mg/ml. Cell density also was adjusted to 10^6 cells/ml in the beginning of this phase. Drug treatments were started at day 2 of expansion condition and maintained thereafter. New drugs were added every 1-2 days with medium change.” left out
A general note: A western blot detects proteins with antibodies after separation by electrophoresis.

The test system of series [2] is human CD34+ HSPCs. The series can be described thus: Cytospin analysis of erythroid differentiation of human CD34+ HSPCs. Conditions: after 14 days of differentiation. The format is cell-based. Here is the method:
FIG. 7 is a cytospin analysis showing erythroblasts and reticulocytes in cultures of human CD34^+ HSPCs treated with PTC596 and MI-3454 and induced to undergo erythroid differentiation for 14 days. Cells were stained using Hema 3 staining system (Fisher Scientific). Scale bar, […].
as §1, with “In the second phase (day 7 to day 11), IL-3 was omitted from the first phase culture medium. In the third phase (day 12 to day 16), both stem cell factor and IL-3 were omitted and the concentration of transferrin was adjusted to 1 mg/ml. Cell density also was adjusted to 10^6 cells/ml in the beginning of this phase. Drug treatments were started at day 2 of expansion condition and maintained thereafter. New drugs were added every 1-2 days with medium change.” left out

The test system of another series is γ-Globin. Kind of series: Western blotting of γ-Globin in erythroid-differentiated human CD34+ HSPCs. The format is cell-based. Conditions: erythroid differentiation 14 days. Here is the method:
as §2
as §1, with “In the second phase (day 7 to day 11), IL-3 was omitted from the first phase culture medium. In the third phase (day 12 to day 16), both stem cell factor and IL-3 were omitted and the concentration of transferrin was adjusted to 1 mg/ml. Cell density also was adjusted to 10^6 cells/ml in the beginning of this phase. Drug treatments were started at day 2 of expansion condition and maintained thereafter. New drugs were added every 1-2 days with medium change.” left out

Series [3] relates to human CD34+ HSPCs. The series can be described thus: Flow cytometry of F-cells (anti-HbF) in cultures of human CD34+ HSPCs. The format is cell-based. The note with it: erythroid differentiation 14 days.
Text: Cells were fixed with glutaraldehyde, permeabilized, and stained with a PE-conjugated anti-HbF antibody. The percentages of F-cells are indicated.
as §1, with “In the third phase (day 12 to day 16), both stem cell factor and IL-3 were omitted and the concentration of transferrin was adjusted to 1 mg/ml. Cell density also was adjusted to 10^6 cells/ml in the beginning of this phase. Drug treatments were started at day 2 of expansion condition and maintained thereafter. New drugs were added every 1-2 days with medium change.” left out
In general terms: A flow cytometer gives signals particle by particle.

The next series concerns the target T2, MEN1 (Homo sapiens, UniProt O00255).
T2 construct: Western blotting analysis of protein levels of […], BMI1, MEN1, and control ACTIN in CD34^+ HSPCs; host or cells: primary human mobilized CD34+ HSPCs, erythroid differentiation for 14 days
T2 sequence (O00255 1-610): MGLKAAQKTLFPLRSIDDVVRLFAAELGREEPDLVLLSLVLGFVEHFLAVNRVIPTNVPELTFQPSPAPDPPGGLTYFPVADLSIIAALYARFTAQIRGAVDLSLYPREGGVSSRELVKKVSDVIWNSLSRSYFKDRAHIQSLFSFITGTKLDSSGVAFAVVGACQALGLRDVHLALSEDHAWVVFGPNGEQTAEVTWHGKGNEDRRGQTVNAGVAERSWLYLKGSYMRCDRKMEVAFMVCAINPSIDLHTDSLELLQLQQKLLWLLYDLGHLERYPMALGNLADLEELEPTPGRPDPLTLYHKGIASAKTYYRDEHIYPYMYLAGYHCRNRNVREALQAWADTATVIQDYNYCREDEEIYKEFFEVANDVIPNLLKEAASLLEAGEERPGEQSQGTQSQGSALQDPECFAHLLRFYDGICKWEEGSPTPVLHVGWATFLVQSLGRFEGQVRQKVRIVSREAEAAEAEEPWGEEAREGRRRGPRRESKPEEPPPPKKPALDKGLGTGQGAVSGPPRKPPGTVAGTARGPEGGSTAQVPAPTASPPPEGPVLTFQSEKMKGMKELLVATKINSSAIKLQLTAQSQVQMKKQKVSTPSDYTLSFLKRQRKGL
Kind of series: Western blotting of MEN1 (MENIN) in erythroid-differentiated human CD34+ HSPCs. The format is cell-based. The note with it: erythroid differentiation 14 days. Here is the method: as §2
as §1, with “In the second phase (day 7 to day 11), IL-3 was omitted from the first phase culture medium. In the third phase (day 12 to day 16), both stem cell factor and IL-3 were omitted and the concentration of transferrin was adjusted to 1 mg/ml. Cell density also was adjusted to 10^6 cells/ml in the beginning of this phase. Drug treatments were started at day 2 of expansion condition and maintained thereafter. New drugs were added every 1-2 days with medium change.” left out

Where [4] appears, read: tested concentrations, 48 hours.
[5] abbreviates: 50 nM, 48 hours, relative to DMSO, normalized to Rpl4.

With `CCN(C(=O)c1cc(F)ccc1Oc1cncnc1N1CC2(CCN(C[C@H]3CC[C@H](NS(=O)(=O)CC)CC3)CC2)C1)C(C)C` [SNDX-5613], the “Hbb-bh1 mRNA levels” value in the series with MEL cells (setting [4]) is recorded as “significantly increased”.

Consider `Cc1nc2ccc(F)cc2n1-c1nc(N)c(F)c(Nc2ccc(C(F)(F)F)cc2)n1` [PTC596], for which, in the series on human CD34+ HSPCs [1] (vs DMSO), the “percentage of γ-globin expression levels in total β-like globin (β+γ+ε) expression levels” value is recorded as “significant increase” and the “γ-globin mRNA levels” value was “significantly increased”. The “α-globin mRNA levels” value in the series on human CD34+ HSPCs [1] is recorded as “significantly increased”. Further, the BMI1 protein levels entry on BMI1 is “reduced”. Moreover, in the series on MEL cells (setting [5]), the “increase of Hbb-bh1 mRNA levels” value is around 20 fold and the “increase of Hbb-y mRNA levels” value is listed as around 15 fold. In addition, the “effect on expression levels of Hbb-b1/2 (adult globin)” value in the series on MEL cells is on record as “minimal effects”. Besides, in the series with human CD34+ HSPCs [2], the “erythroid differentiation (erythroblasts and reticulocytes observed)” value is on record as “not blocked”. For the same compound, in the series with γ-Globin, the γ-Globin protein levels result is recorded as “increased”. Moreover, the “percentage of F-cells” value in the series on human CD34+ HSPCs [3] is on record as “higher percentage”.

In the case of `CNc1nc(NC2CCN(Cc3ccc4c(cc(C#N)n4CC45CC(NC=O)(C4)C5)c3C)CC2)c2cc(CC(F)(F)F)sc2n1` [MI-3454], in the series with human CD34+ HSPCs [1] (vs DMSO), the “percentage of γ-globin expression levels in total β-like globin (β+γ+ε) expression levels” value is given as “significant increase”, the “β-globin mRNA levels” value is listed as “increase” and the “γ-globin mRNA levels” value is listed as “significantly increased”. The “α-globin mRNA levels” value in the series with human CD34+ HSPCs [1] is recorded as “significantly increased”. The “effect on expression levels of Hbb-b1/2 (adult globin)” value in the series with MEL cells is “minor changes”. In addition, in the series with MEL cells (setting [4]), the “Hbb-bh1 mRNA levels” value is “significant increases” and the “Hbb-y mRNA levels” value is given as “significant increases”. Moreover, in the series on human CD34+ HSPCs [2], the “erythroid differentiation (erythroblasts and reticulocytes observed)” value was “not blocked”. Besides, the γ-Globin protein levels entry in the series with γ-Globin is reported as “increased”. Moreover, on MEN1, the MENIN protein levels result is reported as “reduced”. Moreover, the “percentage of F-cells” value in the series on human CD34+ HSPCs [3] is recorded as “higher percentage”.
